Source: patent publication US12648948B2, “Methods and compositions for treating cancer” (UNITED STATES GOVERNMENT AS REPRESENTED BY THE DEPARTMENT …, priority 2017, dated 2026)

Experiments:
[1] = test system: AP-1 transcriptional activity; experiment: AP-1 luciferase reporter assay; type: cell-based, human; details: erlotinib 1 μM, 24 h; GBM9 and U87EGFRwt cells
Method: Cells were plated in 48 well dishes to 70%-80% confluence followed by with […] or 3xAP1pGL3 reporter plasmid using lipofectamine 2000. A dual-luciferase reporter assay system was used according to manufacturer's instructions (Promega, Madison WI). Firefly luciferase activity was measured in a luminometer and normalized on the basis of Renilla luciferase activity. Experiments were done in triplicate and 3 independent experiments were done.

GBM9 subcutaneous tumors = experiment: Subcutaneous GBM9 xenograft tumor growth; type: in vivo, athymic nude mice; details: erlotinib 50 mg/kg oral gavage, SP600125 40 mg/kg i.p., thalidomide 150 mg/kg i.p., daily for 10 days
Method: 4 to 6 weeks old female athymic nude mice were purchased from Charles River Laboratories. The mice were housed in plastic cages (4-5 mice per cage) in a room with a 12 hour day-night cycle. 1×10^6 GBM9 cells were subcutaneously injected into the right flank of each nude mouse. […] The mice were randomly divided into control and treatment groups, mice were treated with drugs using the indicated doses. For combination treatment, both drugs were given concurrently for indicated periods. Tumor dimensions were measured by caliper every two days and tumor volumes calculated by the formula: volume=length×width×width/2. Mice were sacrificed when tumors reached over […] or 24 days from the first day of treatment.

Akt, STAT3 = experiment: Western blot, Akt and STAT3 activation in glioma cells; type: cell-based, human
Method: Western blot analysis was performed according to standard protocols.

[2] = mouse, in vivo
[3] = test system: GBM9 and GBM39 neurospheres; experiment: AlamarBlue cell viability assay, patient derived GBM neurospheres; type: cell-based, human; details: 72 h
Method: Cell viability assay was conducted using AlamarBlue cell viability assay kit (ThermoFisher) following manufacturer's protocol. Cells were cultured in Corning 96-well black plates with clear bottom (5000 cells/well). Drugs were added to cells for 72 hour following detection using POLARstar Omega Microplate Reader (excitation at 544 nm and emission at 590 nm) (BMG LABTECH, Germany).

GBM9 cells [4] = experiment: Cell proliferation by cell counting (trypan blue dye exclusion); type: cell-based, human; details: 72 hours
Method: FIG. 15A GBM9 cells were plated in 6 well plated and treated with drugs as indicated. Cell proliferation was measured through cell counting using the trypan blue dye exclusion test. […] Erlotinib vs erlotinib+SP: P=0.0016, t=7.60, d.f.=4; Erlotinib vs erlotinib+U: P=0.0012, t=8.24, d.f.=4.

[5] = Toxicity and body weight of treated tumor-bearing mice; details: in combination with thalidomide or SP600125, total of 10 days
[6] = test system: JNK-Axl-ERK signaling axis; experiment: Signal transduction in intracranial GBM9 tumors (Western blot, IHC); type: in vivo, mice; details: thalidomide given with erlotinib
Method: (§1) To detect the in vivo levels of TNF, 1×10^6 GBM9 cells were injected into the right flanks of nude mice. When the subcutaneous tumor reached a volume of around 200 mm^3, the mice were treated with erlotinib to monitor the upregulation of TNF protein. The animals were dosed consecutively for 1, 2, 7 or 14 days and then sacrificed. The animals without treatment were considered as control (0-day treatment). Tumor tissues were rinsed in PBS and protein was extracted to analyze the TNF levels using ELISA and also used for western blot. To detect the protein expression in mice brain tumor tissues upon drug treatment, the same procedure was performed in orthotopic models. Additionally, with orthotopic models, mice were divided into four groups (control gavage group, erlotinib group, thalidomide group and erlotinib plus thalidomide, n=3). After 48 hours treatment tumors were harvested and subjected to Western blot and immunostaining.
Tumors from nude mice brains were fixed in 10% formalin and embedded in paraffin. Paraffin-embedded sections were cut at five-micrometer thickness. Immunohistochemical staining was performed using the ABC streptavidin-biotin method with the Vectastain ABC kit (Vector Laboratories, Burlingame, CA, USA) according to the manufacturer's protocol. Briefly, after deparaffinization and rehydration, endogenous peroxidase activity was quenched by a 10 min incubation in 3% H2O2. For antigen retrieval, the tissue sections were boiled in 10 mM sodium citrate buffer (pH 6.0) for 20 minutes. Binding of primary anti-pERK (1:100, Cell Signaling Technology, 4376) or anti-pJNK antibody (1:200, Cell signaling Technology, 4668) or anti-pAXL(1:400, R&D, AF2228) was carried out overnight at 4° C. The signal was detected by using the Sigmafast 3,3′-Diaminobenzidine tablets (DAB; Sigma, St. Louis MO). The sections were counterstained lightly with hematoxylin. The IHC staining intensity was scored semiquantitatively as: 0=No positive staining; 1=1-25% tumor cells stained, 2=26%-75% tumor cells stained and 3=>75% tumor cells stained.

GBM9 cells [7] = experiment: Annexin-FACS assay and Caspase 3/7 activation; type: cell-based, human; details: Annexin V flow cytometry and Caspase 3/7 activation
Method: Annexin assay was performed by using Annexin—V-FLUOS Staining kit (Roche applied Science). Cells (1×10^6) were plated in 6 well plates and treated with drugs or vehicle alone. After 72 hours cells were trypsinized and washed 2 times with 1×PBS. The cells were incubated for 15 minutes at room temperature with Propidium Iodide and Annexin—V-FLUOS labeling solution in incubation buffer. Annexin and/or PI positive cells were detected by Flow Cytometry.
Caspase activity in the supernatant was measured using the Caspase-Glo 3/7 Assay (Promega, G8091) following manufacturer's instructions. Briefly, 72 hours after treatments, cells were washed by cold PBS and total cell lysates were prepared. 50 μg of total protein per sample was added per well of a 96 well plate and was incubated with 100 μl Caspase 3/7 reagent for 30 minutes. The luminescence of each sample was measured using a luminometer. All experiments included at least 3 replicates per group and were repeated 3 times.

JNK, Axl and ERK = experiment: Signal transduction in subcutaneous GBM9 tumors; type: in vivo, mice
Method: as §1

Q: With `C#Cc1cccc(Nc2ncnc3cc(OCCOC)c(OCCOC)cc23)c1` [erlotinib] as the compound, how does the AP-1 reporter activity [1] read?
A: increased activity of the AP-1 reporter

Q: And the “Growth of subcutaneous tumors” value (GBM9 subcutaneous tumors)?
A: no significant effect on the growth of tumors

Q: What about the “Akt or STAT3 activation” value (Akt, STAT3; GBM9 neurospheres, erlotinib 1 μM) of the same compound?
A: did not detect an increase in Akt or STAT3 activation

Q: And the “STAT3 and Akt activation at higher concentration” value (Akt, STAT3; glioma cells, erlotinib 10 μM or afatinib 10 μM)?
A: STAT3 and Akt activation are suppressed

Q: What about the “Body weight of orthotopic models” value [2] of the same compound?
A: Body weight losses

Q: What about the “Cell viability, erlotinib alone at low concentration” value ([3]; erlotinib 100 nM) of the same compound?
A: resistant to EGFR inhibition

Q: And the “Cell viability, erlotinib alone at 1 μM” value ([3]; erlotinib 1 μM)?
A: significant cell death

Q: And the “Cell growth / cell numbers, combination with erlotinib” value (GBM9 cells [4])?
A: significant decreases in cell numbers

Q: And the Short term toxicity [5]?
A: without significant immediate short term toxicity

Q: And the “JNK-Axl-ERK signaling axis in intracranial tumors (Western blot)” value ([6]; erlotinib 50 mg/kg)?
A: Activation of the JNK-Axl-ERK signaling axis can be detected in intracranial tumors

Q: What about the “pAxl, pJNK and pERK immunostaining of brain sections” value ([6]; orthotopic model) of the same compound?
A: higher expression of pAxl, pJNK and pERK compared to vehicle group

Q: And the “Mode of cell death, erlotinib combined with Axl, JNK, ERK or TNF inhibition” value (GBM9 cells [7])?
A: apoptotic cell death

Q: And the “Time at which JNK-ERK-Axl activation subsides in GBM xenograft tumors” value (JNK, Axl and ERK; erlotinib)?
A: about 2 weeks

Q: And the “Erlotinib induced activation of JNK, Axl and ERK in mouse tumors” value (JNK, Axl and ERK; subcutaneous GBM9 tumors, erlotinib 50 mg/kg)?
A: peaking around 2-7 days and subsiding by 14 days
